Measured values taken from article PMC11864979, “First-in-class ultralong-target-residence-time p38α inhibitors as a mitosis-targeted therapy for colorectal cancer” (Nature Cancer, 2025).

How the values were obtained:
Test in all cases: selectivity profiling in a panel of 340 wild-type kinases (Reaction Biology Europe)
Type in all cases: binding
[1] = target: T1, 340 wild-type kinases (Homo sapiens, UniProt Q00537); details: CDK17/p35NCK; 0.2 µM; read-out: residual activity
T1 construct: purchased Reaction Biology Europe
Text: (§1) Potential interactions between 2015 and 340 wild-type kinases were checked by means of a competition binding assay performed by Reaction Biology Europe (Supplementary Table 15).

[2] = target: T2, 340 wild-type kinases (Homo sapiens, UniProt P48729); details: 1 µM 2015; read-out: CK1alpha1 residual activity
T2 construct: purchased Reaction Biology Europe
Text: as §1

[3] = target: T3, 340 wild-type kinases (Homo sapiens, UniProt O75582); details: 1 µM 2015; read-out: RPS6KA5 residual activity
T3 construct: purchased Reaction Biology Europe
Text: as §1

[4] = target: T4, 340 wild-type kinases (Homo sapiens, UniProt P11802); details: CDK4/CycD1; 1 µM; read-out: residual activity
T4 construct: purchased Reaction Biology Europe
Text: as §1

[5] = target: T5, 340 wild-type kinases (Homo sapiens, UniProt P27361); details: 0.2 µM 2015; read-out: ERK1 residual activity
T5 construct: purchased Reaction Biology Europe
Text: as §1

[6] = target: T6, 340 wild-type kinases (Homo sapiens, UniProt P36896); details: 1 µM 2015; read-out: ACVR1B residual activity
T6 construct: purchased Reaction Biology Europe
T6 sequence (P36896 24-505): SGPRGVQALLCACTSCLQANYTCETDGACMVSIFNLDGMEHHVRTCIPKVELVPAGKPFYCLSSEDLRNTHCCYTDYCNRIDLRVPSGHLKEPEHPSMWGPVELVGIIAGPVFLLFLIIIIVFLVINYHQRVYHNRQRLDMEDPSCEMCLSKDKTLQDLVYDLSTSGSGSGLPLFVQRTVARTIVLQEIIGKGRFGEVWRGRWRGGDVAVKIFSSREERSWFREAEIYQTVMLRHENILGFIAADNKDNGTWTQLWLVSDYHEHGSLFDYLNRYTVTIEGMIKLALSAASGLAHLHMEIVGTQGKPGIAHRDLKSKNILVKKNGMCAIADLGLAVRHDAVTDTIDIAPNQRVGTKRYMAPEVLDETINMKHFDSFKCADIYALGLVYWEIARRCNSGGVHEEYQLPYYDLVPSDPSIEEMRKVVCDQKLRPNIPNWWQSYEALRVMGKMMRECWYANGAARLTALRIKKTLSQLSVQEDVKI
Text: as §1

[7] = target: T7, 340 wild-type kinases (Homo sapiens, UniProt P25098); details: 1 µM 2015; read-out: GRK2 residual activity
T7 construct: purchased Reaction Biology Europe
T7 sequence (P25098 1-689): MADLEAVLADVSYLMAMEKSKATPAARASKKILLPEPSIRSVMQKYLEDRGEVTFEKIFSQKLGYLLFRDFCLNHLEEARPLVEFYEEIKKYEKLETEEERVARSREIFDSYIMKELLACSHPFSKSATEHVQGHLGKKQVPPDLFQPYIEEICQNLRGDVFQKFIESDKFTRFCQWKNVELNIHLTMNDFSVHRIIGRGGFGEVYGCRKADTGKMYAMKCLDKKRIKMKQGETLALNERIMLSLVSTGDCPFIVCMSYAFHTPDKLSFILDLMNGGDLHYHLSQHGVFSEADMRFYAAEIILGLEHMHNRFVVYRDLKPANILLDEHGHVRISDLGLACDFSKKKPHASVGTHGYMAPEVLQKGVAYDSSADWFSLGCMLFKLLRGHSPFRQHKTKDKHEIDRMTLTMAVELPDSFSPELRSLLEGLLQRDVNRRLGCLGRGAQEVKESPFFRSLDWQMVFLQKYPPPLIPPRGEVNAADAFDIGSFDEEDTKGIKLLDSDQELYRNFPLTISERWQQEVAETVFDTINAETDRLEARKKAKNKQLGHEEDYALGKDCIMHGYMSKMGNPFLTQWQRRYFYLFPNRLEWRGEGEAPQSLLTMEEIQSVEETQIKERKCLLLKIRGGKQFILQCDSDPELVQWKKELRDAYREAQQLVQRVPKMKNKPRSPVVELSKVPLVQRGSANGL
Text: as §1

[8] = target: T8, 340 wild-type kinases (Homo sapiens, UniProt Q9NZJ5); details: 0.2 µM 2015; read-out: EIF2AK3 residual activity
T8 construct: purchased Reaction Biology Europe
T8 sequence (Q9NZJ5 30-1116): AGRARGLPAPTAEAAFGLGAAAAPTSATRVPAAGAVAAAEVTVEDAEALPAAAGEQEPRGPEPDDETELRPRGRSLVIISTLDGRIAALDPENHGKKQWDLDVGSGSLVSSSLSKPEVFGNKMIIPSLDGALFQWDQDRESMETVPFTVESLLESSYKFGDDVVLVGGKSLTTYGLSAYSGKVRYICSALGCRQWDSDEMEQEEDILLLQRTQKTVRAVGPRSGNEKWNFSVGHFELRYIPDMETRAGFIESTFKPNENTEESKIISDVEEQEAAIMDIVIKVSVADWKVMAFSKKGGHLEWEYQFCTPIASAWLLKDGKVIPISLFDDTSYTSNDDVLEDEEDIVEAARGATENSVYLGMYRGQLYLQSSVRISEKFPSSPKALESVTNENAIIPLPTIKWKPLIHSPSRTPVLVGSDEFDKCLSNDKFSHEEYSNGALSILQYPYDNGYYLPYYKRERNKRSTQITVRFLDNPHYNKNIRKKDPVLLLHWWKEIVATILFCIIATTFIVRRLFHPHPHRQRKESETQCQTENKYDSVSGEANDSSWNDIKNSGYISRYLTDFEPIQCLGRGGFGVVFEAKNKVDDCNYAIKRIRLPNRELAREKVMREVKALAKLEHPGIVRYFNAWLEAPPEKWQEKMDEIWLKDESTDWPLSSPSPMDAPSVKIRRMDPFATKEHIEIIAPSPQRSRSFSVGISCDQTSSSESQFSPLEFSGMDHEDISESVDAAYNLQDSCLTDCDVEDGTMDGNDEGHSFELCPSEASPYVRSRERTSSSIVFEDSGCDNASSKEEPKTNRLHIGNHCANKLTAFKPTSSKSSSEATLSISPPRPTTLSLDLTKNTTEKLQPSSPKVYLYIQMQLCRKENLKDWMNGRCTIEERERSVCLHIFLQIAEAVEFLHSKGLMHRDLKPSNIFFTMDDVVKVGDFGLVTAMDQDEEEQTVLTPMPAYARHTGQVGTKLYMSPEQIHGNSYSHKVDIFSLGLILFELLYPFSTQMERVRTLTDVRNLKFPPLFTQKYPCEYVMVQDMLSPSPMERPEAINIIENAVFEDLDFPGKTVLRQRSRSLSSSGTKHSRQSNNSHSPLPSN
Text: as §1

[9] = target: T9, 340 wild-type kinases (Homo sapiens, UniProt Q9HAZ1); details: 1 µM 2015; read-out: CLK4 residual activity
T9 construct: purchased Reaction Biology Europe
Text: as §1

[10] = target: T10, 340 wild-type kinases (Homo sapiens, UniProt Q9UQM7); details: CAMK2A; 0.2 µM; read-out: residual activity
T10 construct: purchased Reaction Biology Europe
Text: as §1

T10 sequence (Q9UQM7 whole entry): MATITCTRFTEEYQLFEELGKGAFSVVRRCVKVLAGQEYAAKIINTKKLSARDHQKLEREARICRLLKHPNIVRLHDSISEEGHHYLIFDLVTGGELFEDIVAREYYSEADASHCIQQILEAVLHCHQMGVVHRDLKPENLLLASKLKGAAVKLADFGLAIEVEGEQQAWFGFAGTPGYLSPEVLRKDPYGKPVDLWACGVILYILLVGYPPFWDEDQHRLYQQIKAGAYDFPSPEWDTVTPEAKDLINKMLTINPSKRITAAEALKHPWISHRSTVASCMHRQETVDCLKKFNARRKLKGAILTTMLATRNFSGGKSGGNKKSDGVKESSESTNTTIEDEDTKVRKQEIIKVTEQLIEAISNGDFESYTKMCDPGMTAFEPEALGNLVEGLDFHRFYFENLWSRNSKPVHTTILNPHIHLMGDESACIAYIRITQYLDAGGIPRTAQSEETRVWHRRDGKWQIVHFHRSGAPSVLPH
T9 sequence (Q9HAZ1 whole entry): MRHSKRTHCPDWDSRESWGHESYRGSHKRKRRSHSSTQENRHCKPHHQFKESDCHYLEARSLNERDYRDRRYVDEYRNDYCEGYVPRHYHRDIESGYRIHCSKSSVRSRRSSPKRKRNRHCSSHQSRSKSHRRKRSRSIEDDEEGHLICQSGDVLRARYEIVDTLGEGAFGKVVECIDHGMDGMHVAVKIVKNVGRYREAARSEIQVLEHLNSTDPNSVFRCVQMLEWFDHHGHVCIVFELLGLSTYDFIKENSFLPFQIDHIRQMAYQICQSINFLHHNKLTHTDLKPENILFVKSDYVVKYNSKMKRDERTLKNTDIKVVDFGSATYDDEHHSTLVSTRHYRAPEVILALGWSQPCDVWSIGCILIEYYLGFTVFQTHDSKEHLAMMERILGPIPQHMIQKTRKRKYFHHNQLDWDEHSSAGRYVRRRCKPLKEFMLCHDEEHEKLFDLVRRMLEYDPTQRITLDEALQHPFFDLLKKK
T1 sequence (Q00537 whole entry): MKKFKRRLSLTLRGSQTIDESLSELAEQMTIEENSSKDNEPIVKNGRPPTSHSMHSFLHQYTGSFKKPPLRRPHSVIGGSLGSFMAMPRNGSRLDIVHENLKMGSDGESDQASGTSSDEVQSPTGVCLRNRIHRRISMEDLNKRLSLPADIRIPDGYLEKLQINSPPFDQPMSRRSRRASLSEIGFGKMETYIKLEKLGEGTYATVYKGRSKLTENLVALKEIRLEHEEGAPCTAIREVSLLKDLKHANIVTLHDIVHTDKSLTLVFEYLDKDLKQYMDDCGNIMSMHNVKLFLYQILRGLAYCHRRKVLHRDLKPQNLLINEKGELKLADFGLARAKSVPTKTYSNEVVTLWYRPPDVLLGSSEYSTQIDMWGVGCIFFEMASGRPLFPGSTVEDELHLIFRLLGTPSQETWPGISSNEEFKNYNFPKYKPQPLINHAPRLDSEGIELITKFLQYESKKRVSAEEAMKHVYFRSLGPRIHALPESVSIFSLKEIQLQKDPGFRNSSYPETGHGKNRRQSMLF
T4 sequence (P11802 whole entry): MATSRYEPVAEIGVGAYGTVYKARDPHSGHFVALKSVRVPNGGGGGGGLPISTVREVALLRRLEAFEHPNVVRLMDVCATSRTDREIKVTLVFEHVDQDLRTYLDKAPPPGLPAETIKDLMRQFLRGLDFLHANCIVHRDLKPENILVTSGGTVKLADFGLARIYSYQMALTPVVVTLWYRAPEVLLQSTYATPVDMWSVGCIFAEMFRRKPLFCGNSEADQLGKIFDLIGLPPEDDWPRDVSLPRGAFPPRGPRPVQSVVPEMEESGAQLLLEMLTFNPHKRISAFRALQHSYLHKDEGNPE
T3 sequence (O75582 whole entry): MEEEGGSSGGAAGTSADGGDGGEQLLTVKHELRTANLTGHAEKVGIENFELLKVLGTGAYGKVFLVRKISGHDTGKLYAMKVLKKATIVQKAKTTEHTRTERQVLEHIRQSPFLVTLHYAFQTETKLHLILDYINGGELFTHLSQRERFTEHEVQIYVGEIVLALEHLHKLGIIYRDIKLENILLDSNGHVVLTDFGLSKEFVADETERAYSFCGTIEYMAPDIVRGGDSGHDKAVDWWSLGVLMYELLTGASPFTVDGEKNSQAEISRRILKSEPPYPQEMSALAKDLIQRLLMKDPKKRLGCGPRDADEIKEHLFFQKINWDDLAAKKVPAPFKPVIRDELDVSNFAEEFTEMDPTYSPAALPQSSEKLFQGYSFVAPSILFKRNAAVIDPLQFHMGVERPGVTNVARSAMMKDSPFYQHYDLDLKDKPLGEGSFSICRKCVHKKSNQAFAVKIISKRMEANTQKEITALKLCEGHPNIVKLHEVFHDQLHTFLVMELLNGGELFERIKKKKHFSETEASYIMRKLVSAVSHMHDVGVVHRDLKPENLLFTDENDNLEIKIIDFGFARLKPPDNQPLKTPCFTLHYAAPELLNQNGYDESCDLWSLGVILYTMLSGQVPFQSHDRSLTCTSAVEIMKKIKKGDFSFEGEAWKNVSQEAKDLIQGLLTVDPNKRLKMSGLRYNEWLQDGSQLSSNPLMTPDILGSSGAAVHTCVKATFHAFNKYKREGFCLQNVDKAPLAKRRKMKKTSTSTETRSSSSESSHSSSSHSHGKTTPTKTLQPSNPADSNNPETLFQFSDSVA
T5 sequence (P27361 whole entry): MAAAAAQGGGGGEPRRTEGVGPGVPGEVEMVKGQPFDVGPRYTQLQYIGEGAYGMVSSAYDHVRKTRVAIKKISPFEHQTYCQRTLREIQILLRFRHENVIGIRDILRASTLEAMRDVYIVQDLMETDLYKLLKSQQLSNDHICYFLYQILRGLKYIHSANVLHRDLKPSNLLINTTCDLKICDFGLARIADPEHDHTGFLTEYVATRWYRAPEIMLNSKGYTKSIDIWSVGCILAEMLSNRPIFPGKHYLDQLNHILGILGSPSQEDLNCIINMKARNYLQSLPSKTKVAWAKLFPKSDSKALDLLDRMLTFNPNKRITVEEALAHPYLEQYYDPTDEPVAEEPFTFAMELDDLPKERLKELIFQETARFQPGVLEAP
T2 sequence (P48729 whole entry): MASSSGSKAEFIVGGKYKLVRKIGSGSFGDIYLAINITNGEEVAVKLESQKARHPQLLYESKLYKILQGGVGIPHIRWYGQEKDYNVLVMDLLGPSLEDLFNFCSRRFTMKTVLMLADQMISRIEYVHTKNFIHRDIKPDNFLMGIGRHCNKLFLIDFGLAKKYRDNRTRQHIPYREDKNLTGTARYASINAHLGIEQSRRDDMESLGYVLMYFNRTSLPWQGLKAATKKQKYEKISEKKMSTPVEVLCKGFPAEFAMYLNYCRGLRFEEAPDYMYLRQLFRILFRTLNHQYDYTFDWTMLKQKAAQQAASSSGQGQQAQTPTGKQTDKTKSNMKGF

CNC(=O)c1ccc2c(c1)C(=O)c1ccc(Nc3ccc(F)c(NC(=O)C4CC4)c3)cc1CC2 [Compound 2015]
remaining activity at 0.2 µM [1]: 94.8% | remaining activity at 1 µM [2]: 94.9% | remaining activity at 1 µM [3]: 90.2% | remaining activity at 1 µM [4]: 98.4% | remaining activity at 0.2 µM [5]: 108% | remaining activity at 1 µM [6]: 86.1% | remaining activity at 1 µM [7]: 80.8% | remaining activity at 0.2 µM [8]: 93.3% | remaining activity at 1 µM [9]: 118% | remaining activity at 0.2 µM [10]: 102%
